Tests used:
[1] = system: Salmonella typhimurium; test: Antibiofilm activity against Salmonella typhimurium ATCC 14028 after 24 hrs by crystal violet staining based assay; type: functional, organism-based, Salmonella enterica subsp. enterica serovar Typhimurium; conditions: Salmonella enterica, ATCC 14028, 24 h
[2] = system: Pseudomonas aeruginosa; test: Antibiofilm activity against Pseudomonas aeruginosa PA14 after 24 hrs by crystal violet staining based assay; type: functional, organism-based; conditions: PA14, 24 h
[3] = system: Escherichia coli; test: Antibiofilm activity against Escherichia coli TG1 after 24 hrs by crystal violet staining based assay; type: functional, organism-based; conditions: TG1, 24 h
[4] = system: Staphylococcus aureus; test: Antibiofilm activity against Staphylococcus aureus SH1000 after 48 hrs by crystal violet staining based assay; type: functional, organism-based; conditions: SH1000, 48 h
[5] = system: Salmonella typhimurium; test: Inhibition of planktonic growth of Salmonella typhimurium ATCC 14028 after 24 hrs; type: organism-based, Salmonella enterica subsp. enterica serovar Typhimurium; conditions: Salmonella enterica, ATCC 14028, 24 h
[6] = system: Escherichia coli; test: Inhibition of planktonic growth of Escherichia coli TG1 after 24 hrs; type: organism-based; conditions: TG1, 24 h
[7] = system: Staphylococcus aureus; test: Inhibition of planktonic growth of Staphylococcus aureus SH1000 after 48 hrs; type: organism-based; conditions: SH1000, 48 h

Row | Compound | IC50 [1] | IC50 [2] | IC50 [3] | IC50 [4] | IC50 [5] | IC50 [6] | IC50 [7]
1 | Nc1ncc(-c2ccc(F)cc2)n1CCCCCCn1c(-c2ccc(F)cc2)cnc1N | 3.2 µM | 11.6 µM | 1.8 µM | 48 µM | 23.8 µM | > 800 µM | 34.4 µM
2 | Nc1ncc(-c2ccc(Br)cc2)n1CCCCCCCCn1c(-c2ccc(Br)cc2)cnc1N | 7.7 µM | 4.5 µM | 0.8 µM | 2.8 µM | > 400 µM | 2.99 µM | 2 µM
3 | Nc1ncc(-c2ccc(Br)cc2)n1CCCCCCn1c(-c2ccc(Br)cc2)cnc1N | 8.4 µM | 5.8 µM | 8.2 µM | 11.2 µM | > 400 µM | > 400 µM | 11.1 µM
4 | Fc1ccc(-c2cnc(NCCCCCNc3ncc(-c4ccc(F)cc4)[nH]3)[nH]2)cc1 | 7.6 µM | 1.7 µM | 7 µM | 150 µM | 85.4 µM | 16.4 µM | 105 µM
5 | Nc1ncc(-c2ccc(F)cc2)n1CCCCn1c(-c2ccc(F)cc2)cnc1N | 11.4 µM | 11.1 µM | 25.4 µM | 24.4 µM | 50 µM | 77.3 µM | 27 µM
6 | Clc1ccc(-c2cnc(NCCCCCNc3ncc(-c4ccc(Cl)cc4)[nH]3)[nH]2)cc1 | 3.8 µM | 6 µM | 12 µM | 94.4 µM | 15.2 µM | 224 µM | 90.2 µM
7 | Brc1ccc(-c2cnc(NCCCCCCNc3ncc(-c4ccc(Br)cc4)[nH]3)[nH]2)cc1 | 15.7 µM | 8.8 µM | 8.3 µM | 53.3 µM | > 800 µM | 6.43 µM | 93.8 µM
8 | Brc1ccc(-c2cnc(NCCCCNc3ncc(-c4ccc(Br)cc4)[nH]3)[nH]2)cc1 | 13.2 µM | 11.2 µM | 7.2 µM | 300 µM | > 800 µM | > 100 µM | 145 µM
9 | Nc1ncc(-c2ccc(F)cc2)n1CCCCCn1c(-c2ccc(F)cc2)cnc1N | 4.8 µM | 12 µM | 7.5 µM | 60.7 µM | 85.4 µM | 3.74 µM | 59.7 µM
10 | Nc1ncc(-c2ccccc2)n1CCCCCCCn1c(-c2ccccc2)cnc1N | 3.7 µM | 3.7 µM | 8 µM | 11.7 µM | > 400 µM | > 800 µM | 32.7 µM
11 | Fc1ccc(-c2cnc(NCCCCCCCNc3ncc(-c4ccc(F)cc4)[nH]3)[nH]2)cc1 | 10.4 µM | 7.5 µM | 10 µM | 107 µM | 86.1 µM | 7.48 µM | 121 µM
12 | Brc1ccc(-c2cnc(NCCCCCCCNc3ncc(-c4ccc(Br)cc4)[nH]3)[nH]2)cc1 | 50.4 µM | 252 µM | 19.1 µM | 300 µM | > 800 µM | 122 µM | 217 µM
13 | Fc1ccc(-c2cnc(NCCCCCCNc3ncc(-c4ccc(F)cc4)[nH]3)[nH]2)cc1 | 10.3 µM | 10.1 µM | 5.4 µM | 8.9 µM | 23.8 µM | 5.52 µM | 28.7 µM
14 | c1ccc(-c2cnc(NCCCNc3ncc(-c4ccccc4)[nH]3)[nH]2)cc1 | 5.7 µM | 2.8 µM | 4.1 µM | 300 µM | 75.9 µM | 2.82 µM | 292 µM
15 | c1ccc(-c2cnc(NCCCCCNc3ncc(-c4ccccc4)[nH]3)[nH]2)cc1 | 4.6 µM | 1.2 µM | 5.2 µM | 180 µM | 59.6 µM | 19.9 µM | 108 µM
16 | Nc1ncc(-c2ccccc2)n1CCCCCCCCn1c(-c2ccccc2)cnc1N | 16.1 µM | 8.7 µM | 2.9 µM | 22.2 µM | > 400 µM | 6.13 µM | 15.3 µM

Row | Compound | IC50 [1] | IC50 [2] | IC50 [3] | IC50 [4] | IC50 [5] | IC50 [6] | IC50 [7]
17 | Fc1ccc(-c2cnc(NCCCNc3ncc(-c4ccc(F)cc4)[nH]3)[nH]2)cc1 | 6.3 µM | 5.7 µM | 4.8 µM | 50 µM | 59.2 µM | 16.2 µM | 60.1 µM
18 | Brc1ccc(-c2cnc(NCCCCCCCCNc3ncc(-c4ccc(Br)cc4)[nH]3)[nH]2)cc1 | 31.3 µM | 893 µM | 90.6 µM | 68.1 µM | > 800 µM | 136 µM | 69.3 µM
19 | Nc1ncc(-c2ccccc2)[nH]1 |  |  | 146 µM | > 800 µM |  |  | 
20 | Clc1ccc(-c2cnc(NCCCCCCCNc3ncc(-c4ccc(Cl)cc4)[nH]3)[nH]2)cc1 | 23 µM | 120 µM | 35 µM | 150 µM | > 800 µM | 29.8 µM | 141 µM
21 | Nc1ncc(-c2ccc(Cl)cc2)n1CCCCn1c(-c2ccc(Cl)cc2)cnc1N | 5.3 µM | 3.1 µM | 12.3 µM | 180 µM | 64 µM | 16.6 µM | 130 µM
22 | Nc1ncc(-c2ccc(Cl)cc2)[nH]1 |  |  | 18 µM | 121 µM |  |  | 
23 | Nc1ncc(-c2ccc(Cl)cc2)n1CCCCCCCn1c(-c2ccc(Cl)cc2)cnc1N | 3.3 µM | 4.9 µM | 6.1 µM | 10.6 µM | 200 µM | > 400 µM | 16.2 µM
24 | Nc1ncc(-c2ccc(Br)cc2)n1CCCn1c(-c2ccc(Br)cc2)cnc1N | 2.7 µM | 2.5 µM | 6.3 µM | 15 µM | 11.5 µM | 9.93 µM | 22 µM
25 | Clc1ccc(-c2cnc(NCCCCCCCCNc3ncc(-c4ccc(Cl)cc4)[nH]3)[nH]2)cc1 | 8.3 µM | 31.6 µM | 42.7 µM | 300 µM | 47.8 µM | 44 µM | 121 µM
26 | Nc1ncc(-c2ccc(Cl)cc2)n1CCCCCCn1c(-c2ccc(Cl)cc2)cnc1N | 4.8 µM | 3.2 µM | 4 µM | 8.6 µM | 300 µM | > 400 µM | 7.4 µM
27 | c1ccc(-c2cnc(NCCCCCCNc3ncc(-c4ccccc4)[nH]3)[nH]2)cc1 | 14.2 µM | 23.7 µM | 2 µM | 99.4 µM | 41.3 µM | 2.58 µM | 113 µM
28 | Nc1ncc(-c2ccc(Br)cc2)n1CCCCn1c(-c2ccc(Br)cc2)cnc1N | 3.9 µM | 3.1 µM | 6.4 µM | 7.2 µM | 200 µM | 6.09 µM | 9.17 µM
29 | Nc1ncc(-c2ccc(F)cc2)[nH]1 |  |  | 75.5 µM | > 800 µM |  |  | 
30 | Nc1ncc(-c2ccc(Br)cc2)n1CCCCCn1c(-c2ccc(Br)cc2)cnc1N | 4 µM | 6.1 µM | 6.3 µM | 7.4 µM | 35.9 µM | 6.7 µM | 8.76 µM
31 | Nc1ncc(-c2ccc(Br)cc2)[nH]1 |  |  | 8.8 µM | 152 µM |  |  | 

— ChEMBL document CHEMBL4219072, “Enhancing the anti-biofilm activity of 5-aryl-2-aminoimidazoles through nature inspired dimerisation” (Bioorg Med Chem, 2018)
